Like-named read-outs stand apart in the source and are kept apart here.

Experiment in all cases: biochemical
Set-up in all cases: DiscoveRx KINOMEscan active site-directed competition binding; percent of control kinase bound to immobilised ligand

Assay [1] addresses EGFR(L747-E749del, A750P) (Homo sapiens, UniProt P00533, A750P/DEL747-749).
For assay [2], the target named is EIF2AK1 (Homo sapiens, UniProt Q9BQI3).
Assay [3] addresses T1, GRK2 (Homo sapiens, UniProt P25098).
T1 sequence (P25098 1-689): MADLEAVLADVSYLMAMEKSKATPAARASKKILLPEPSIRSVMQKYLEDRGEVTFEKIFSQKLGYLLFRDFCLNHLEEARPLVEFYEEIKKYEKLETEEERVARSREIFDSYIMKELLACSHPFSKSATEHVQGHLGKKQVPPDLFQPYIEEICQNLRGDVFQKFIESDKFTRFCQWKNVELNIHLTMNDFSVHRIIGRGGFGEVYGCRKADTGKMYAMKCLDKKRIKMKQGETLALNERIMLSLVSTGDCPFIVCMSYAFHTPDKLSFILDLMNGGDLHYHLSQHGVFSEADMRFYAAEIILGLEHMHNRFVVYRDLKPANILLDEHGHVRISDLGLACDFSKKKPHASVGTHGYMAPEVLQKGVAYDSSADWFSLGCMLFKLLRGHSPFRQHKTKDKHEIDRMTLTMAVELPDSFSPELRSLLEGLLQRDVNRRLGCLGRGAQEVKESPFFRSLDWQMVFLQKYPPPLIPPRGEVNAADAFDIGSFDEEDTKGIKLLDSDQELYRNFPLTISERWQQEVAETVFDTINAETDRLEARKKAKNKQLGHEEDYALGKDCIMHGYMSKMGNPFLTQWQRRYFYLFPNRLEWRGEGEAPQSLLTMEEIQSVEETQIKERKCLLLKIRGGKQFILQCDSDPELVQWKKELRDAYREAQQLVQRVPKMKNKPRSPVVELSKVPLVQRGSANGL

The target of assay [4] is HCK (Homo sapiens, UniProt P08631).
Assay [5] addresses KIT(L576P) (Homo sapiens, UniProt P10721, L576P).
Assay [6] deals with MAP3K4 (Homo sapiens, UniProt Q9Y6R4).
For assay [7], the target named is MARK1 (Homo sapiens, UniProt Q9P0L2).
Assay [8] deals with T2, MRCKB (Homo sapiens, UniProt Q9Y5S2).
T2 construct: gene CDC42BPB

For assay [9], the target named is T3, SGK2 (Homo sapiens, UniProt Q9HBY8).
T3 sequence (Q9HBY8 1-367): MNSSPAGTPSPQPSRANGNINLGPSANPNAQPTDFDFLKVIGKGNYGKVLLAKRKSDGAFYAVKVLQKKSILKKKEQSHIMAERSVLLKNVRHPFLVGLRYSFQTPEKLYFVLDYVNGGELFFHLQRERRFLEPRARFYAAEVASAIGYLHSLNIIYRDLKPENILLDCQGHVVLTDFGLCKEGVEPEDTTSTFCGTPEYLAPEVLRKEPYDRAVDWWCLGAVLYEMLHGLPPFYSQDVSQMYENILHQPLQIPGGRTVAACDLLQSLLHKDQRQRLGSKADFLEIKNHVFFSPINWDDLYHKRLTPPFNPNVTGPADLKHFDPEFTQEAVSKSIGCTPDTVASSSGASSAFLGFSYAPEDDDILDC

Assay [10] addresses WEE2 (Homo sapiens, UniProt P0C1S8).
Assay [11] deals with T4, JAK1(JH2domain-pseudokinase) (Homo sapiens, UniProt P23458).
T4 construct: JH2domain-pseudokinase

[12] abbreviates: read-out: Niraparib (MK-4827) / %Ctrl @ 10000nM.
Setting [13] is: read-out: Olaparib / %Ctrl @ 10000nM.
The mark [14] stands for this setting: read-out: Rucaparib / %Ctrl @ 10000nM, binding competition, % of control.
The mark [15] stands for this setting: read-out: Talazoparib (BMN 673) / %Ctrl @ 10000nM.

Chain of MAP3K4 (Q9Y6R4 whole entry): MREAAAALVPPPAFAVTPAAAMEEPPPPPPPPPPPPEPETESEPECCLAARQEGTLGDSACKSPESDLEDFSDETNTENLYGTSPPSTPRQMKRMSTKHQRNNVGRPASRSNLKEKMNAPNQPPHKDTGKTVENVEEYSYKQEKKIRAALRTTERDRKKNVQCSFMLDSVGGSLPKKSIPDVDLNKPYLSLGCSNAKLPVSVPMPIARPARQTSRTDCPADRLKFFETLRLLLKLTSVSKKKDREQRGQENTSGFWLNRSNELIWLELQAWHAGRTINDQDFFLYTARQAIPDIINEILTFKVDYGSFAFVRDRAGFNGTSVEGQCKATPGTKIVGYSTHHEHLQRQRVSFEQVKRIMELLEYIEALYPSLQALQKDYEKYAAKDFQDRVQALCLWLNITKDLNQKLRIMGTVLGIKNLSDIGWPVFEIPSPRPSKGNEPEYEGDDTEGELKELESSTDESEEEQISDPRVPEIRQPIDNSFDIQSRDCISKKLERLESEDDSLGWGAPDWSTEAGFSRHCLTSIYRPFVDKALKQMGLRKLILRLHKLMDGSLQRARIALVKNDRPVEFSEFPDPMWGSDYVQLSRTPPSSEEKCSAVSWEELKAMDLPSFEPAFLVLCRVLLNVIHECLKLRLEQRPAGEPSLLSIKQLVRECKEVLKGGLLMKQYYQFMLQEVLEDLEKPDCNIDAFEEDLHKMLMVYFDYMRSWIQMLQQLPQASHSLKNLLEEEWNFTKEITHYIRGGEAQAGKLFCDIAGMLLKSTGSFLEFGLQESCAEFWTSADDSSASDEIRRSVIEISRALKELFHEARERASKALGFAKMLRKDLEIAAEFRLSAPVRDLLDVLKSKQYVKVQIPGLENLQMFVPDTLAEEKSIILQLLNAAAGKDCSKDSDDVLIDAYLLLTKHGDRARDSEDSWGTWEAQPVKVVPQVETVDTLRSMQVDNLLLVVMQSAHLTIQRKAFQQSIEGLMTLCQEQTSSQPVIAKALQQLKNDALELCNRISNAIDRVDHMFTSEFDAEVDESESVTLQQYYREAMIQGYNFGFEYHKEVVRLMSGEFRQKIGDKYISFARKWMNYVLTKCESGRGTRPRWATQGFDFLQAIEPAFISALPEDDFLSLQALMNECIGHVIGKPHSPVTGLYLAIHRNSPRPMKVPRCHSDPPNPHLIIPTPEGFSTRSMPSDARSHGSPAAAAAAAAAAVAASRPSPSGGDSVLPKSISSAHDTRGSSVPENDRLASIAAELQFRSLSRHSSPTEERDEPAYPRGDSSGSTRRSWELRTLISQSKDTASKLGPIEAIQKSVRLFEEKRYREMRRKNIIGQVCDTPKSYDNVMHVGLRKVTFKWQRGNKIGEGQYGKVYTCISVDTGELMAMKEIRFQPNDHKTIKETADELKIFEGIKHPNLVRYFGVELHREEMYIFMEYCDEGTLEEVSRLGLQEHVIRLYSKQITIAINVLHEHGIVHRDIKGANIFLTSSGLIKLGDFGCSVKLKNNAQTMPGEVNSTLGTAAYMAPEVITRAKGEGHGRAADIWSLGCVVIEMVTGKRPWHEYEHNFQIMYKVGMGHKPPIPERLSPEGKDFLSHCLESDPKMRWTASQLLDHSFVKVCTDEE
Chain of WEE2 (P0C1S8 whole entry): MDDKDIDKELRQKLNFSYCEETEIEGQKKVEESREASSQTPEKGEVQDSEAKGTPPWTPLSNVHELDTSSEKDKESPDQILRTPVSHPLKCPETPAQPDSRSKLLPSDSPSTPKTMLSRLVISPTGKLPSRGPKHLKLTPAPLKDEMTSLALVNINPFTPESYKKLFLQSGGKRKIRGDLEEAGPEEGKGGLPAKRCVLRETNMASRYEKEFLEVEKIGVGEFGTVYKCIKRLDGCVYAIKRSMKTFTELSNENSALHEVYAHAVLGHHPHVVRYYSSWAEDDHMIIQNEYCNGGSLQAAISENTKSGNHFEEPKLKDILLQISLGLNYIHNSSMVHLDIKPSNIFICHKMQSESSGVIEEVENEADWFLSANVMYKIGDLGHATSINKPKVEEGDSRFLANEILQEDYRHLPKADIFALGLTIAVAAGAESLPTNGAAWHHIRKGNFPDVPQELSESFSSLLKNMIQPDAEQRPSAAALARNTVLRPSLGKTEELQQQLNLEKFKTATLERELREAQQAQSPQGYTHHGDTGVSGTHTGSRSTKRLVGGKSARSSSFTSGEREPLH
Chain of MARK1 (Q9P0L2 whole entry): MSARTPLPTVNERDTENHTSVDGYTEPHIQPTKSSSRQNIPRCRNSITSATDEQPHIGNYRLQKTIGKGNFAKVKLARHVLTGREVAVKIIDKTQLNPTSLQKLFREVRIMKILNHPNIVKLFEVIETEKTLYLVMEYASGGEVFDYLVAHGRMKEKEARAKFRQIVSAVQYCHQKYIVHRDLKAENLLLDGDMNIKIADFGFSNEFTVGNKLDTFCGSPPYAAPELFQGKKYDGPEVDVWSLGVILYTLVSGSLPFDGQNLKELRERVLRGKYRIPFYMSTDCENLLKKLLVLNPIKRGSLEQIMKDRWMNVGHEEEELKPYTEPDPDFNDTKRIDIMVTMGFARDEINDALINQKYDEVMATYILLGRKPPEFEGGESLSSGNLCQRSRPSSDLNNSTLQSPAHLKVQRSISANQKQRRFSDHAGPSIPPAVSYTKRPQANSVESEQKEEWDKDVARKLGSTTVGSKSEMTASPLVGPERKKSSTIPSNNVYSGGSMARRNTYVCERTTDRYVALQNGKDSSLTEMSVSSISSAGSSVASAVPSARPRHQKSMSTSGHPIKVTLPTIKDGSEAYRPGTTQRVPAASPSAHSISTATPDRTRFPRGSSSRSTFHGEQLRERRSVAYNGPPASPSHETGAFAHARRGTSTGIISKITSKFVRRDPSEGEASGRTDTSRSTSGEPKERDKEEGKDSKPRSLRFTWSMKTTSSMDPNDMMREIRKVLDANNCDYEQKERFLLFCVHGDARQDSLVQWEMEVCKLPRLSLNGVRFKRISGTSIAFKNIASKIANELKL
Chain of KIT(L576P) (P10721 whole entry L576P): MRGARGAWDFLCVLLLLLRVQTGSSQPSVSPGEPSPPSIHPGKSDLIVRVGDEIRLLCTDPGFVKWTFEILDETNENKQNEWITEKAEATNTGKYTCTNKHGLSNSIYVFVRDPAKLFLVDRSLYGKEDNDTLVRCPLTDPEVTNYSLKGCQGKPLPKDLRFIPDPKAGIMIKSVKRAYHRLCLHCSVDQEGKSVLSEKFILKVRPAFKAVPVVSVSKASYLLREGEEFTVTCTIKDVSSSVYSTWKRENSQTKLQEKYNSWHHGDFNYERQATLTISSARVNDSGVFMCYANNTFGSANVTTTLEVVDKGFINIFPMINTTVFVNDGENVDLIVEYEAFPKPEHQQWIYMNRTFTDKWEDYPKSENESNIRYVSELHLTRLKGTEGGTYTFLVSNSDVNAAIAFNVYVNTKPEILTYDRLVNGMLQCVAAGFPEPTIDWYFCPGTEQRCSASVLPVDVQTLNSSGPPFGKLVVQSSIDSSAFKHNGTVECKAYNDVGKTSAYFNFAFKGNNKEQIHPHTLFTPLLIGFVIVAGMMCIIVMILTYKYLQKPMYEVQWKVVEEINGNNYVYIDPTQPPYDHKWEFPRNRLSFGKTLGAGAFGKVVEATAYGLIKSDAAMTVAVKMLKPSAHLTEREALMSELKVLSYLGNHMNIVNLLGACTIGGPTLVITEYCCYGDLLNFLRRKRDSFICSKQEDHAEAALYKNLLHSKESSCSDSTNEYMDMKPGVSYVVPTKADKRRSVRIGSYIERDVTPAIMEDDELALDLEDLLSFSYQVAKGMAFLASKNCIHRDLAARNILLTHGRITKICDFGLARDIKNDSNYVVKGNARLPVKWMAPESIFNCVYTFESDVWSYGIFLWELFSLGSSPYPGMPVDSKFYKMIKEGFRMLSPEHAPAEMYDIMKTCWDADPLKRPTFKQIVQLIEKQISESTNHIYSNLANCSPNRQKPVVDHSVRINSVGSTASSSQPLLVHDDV
T4 sequence (P23458 whole entry): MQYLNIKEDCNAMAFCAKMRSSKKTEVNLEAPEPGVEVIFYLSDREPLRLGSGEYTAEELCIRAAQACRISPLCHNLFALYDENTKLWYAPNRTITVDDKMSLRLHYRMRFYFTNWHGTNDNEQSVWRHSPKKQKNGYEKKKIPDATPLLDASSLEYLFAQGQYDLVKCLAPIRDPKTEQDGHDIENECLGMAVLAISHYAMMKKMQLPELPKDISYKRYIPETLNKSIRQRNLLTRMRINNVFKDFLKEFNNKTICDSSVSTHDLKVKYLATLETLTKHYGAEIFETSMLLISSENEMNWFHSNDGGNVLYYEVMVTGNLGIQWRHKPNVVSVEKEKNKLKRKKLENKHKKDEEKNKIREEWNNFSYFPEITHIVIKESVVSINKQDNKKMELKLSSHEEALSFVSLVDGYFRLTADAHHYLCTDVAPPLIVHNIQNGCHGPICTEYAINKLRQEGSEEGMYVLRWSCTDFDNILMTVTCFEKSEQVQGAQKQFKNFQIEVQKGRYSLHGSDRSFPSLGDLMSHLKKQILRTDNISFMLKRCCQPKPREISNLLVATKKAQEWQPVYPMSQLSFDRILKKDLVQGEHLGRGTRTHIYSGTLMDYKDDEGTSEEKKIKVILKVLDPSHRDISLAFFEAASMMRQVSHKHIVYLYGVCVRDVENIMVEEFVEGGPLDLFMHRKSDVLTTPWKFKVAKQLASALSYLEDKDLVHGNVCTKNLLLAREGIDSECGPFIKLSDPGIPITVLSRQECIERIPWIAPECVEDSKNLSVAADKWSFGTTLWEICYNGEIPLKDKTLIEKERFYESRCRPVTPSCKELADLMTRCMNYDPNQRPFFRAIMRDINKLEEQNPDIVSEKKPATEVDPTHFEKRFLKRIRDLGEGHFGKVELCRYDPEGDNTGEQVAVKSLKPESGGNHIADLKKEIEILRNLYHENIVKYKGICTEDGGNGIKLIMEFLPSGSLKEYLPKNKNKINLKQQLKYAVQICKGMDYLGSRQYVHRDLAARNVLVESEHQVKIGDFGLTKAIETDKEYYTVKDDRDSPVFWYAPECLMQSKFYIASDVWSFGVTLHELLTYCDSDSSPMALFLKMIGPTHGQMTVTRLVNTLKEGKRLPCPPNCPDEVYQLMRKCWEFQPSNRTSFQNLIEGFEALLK

On to `NC(=O)c1cccc2cn(-c3ccc([C@@H]4CCCNC4)cc3)nc12` [Niraparib], for which the percent of control binding at 10 µM came out at 65% in assay [1] (setting [12]); 93% in [2] (setting [12]); 97% in assay [3] (setting [12]); 70% in assay [4] (setting [12]); 80% in assay [5] (setting [12]); 94% in [6] (setting [12]). In addition, the percent of control binding at 10 µM was 93% in assay [7] (setting [12]), 98% in [8] (setting [12]), 96% in [9] (setting [12]) and 100% in assay [10] (setting [12]).

Turning to `O=C(c1cc(Cc2n[nH]c(=O)c3ccccc23)ccc1F)N1CCN(C(=O)C2CC2)CC1` [Olaparib], the percent of control binding at 10 µM is 82% in [1] (setting [13]); 83% in assay [2] (setting [13]); 79% in assay [3] (setting [13]); 96% in assay [4] (setting [13]); 91% in assay [11] (setting [13]); 100% in assay [5] (setting [13]). Further, the percent of control binding at 10 µM in assay [6] (setting [13]) was 100%; in assay [7] (setting [13]), 93%; in assay [8] (setting [13]) it was 100%; in assay [9] (setting [13]) it was 99%; in assay [10] (setting [13]), 100%.

Regarding `CNCc1ccc(-c2[nH]c3cc(F)cc4c3c2CCNC4=O)cc1` [Rucaparib], the percent of control binding at 10 µM was determined as 98% in assay [1] (setting [14]); 72% in assay [2] (setting [14]); 70% in assay [3] (setting [14]); 74% in assay [4] (setting [14]); 0.8% in assay [11] (setting [14]); 88% in [5] (setting [14]). Also, the percent of control binding at 10 µM stood at 100% in assay [6] (setting [14]); 85% in assay [7] (setting [14]); 100% in [8] (setting [14]); 78% in assay [9] (setting [14]); 100% in [10] (setting [14]).

As for `Cn1ncnc1[C@H]1c2n[nH]c(=O)c3cc(F)cc(c23)N[C@@H]1c1ccc(F)cc1` [Talazoparib], the percent of control binding at 10 µM in assay [1] (setting [15]) amounted to 96%; in assay [2] (setting [15]) it was 100%; in [3] (setting [15]), 100%; in [4] (setting [15]), 86%; in assay [11] (setting [15]), 73%; in assay [5] (setting [15]), 100%. Also, the percent of control binding at 10 µM in assay [6] (setting [15]) is 90%; in assay [7] (setting [15]), 89%; in assay [8] (setting [15]), 100%; in [9] (setting [15]) it was 89%; in assay [10] (setting [15]) it was 100%.

The record behind these values is publication PMC7026418, “The kinase polypharmacology landscape of clinical PARP inhibitors” (Scientific Reports, 2020).
